Test results published in the supplement of paper PMC5579334.
± gives the standard deviation of the averaged measurements.

What was measured:
STS26T [1] = assay: % inhibition of CellTiter-Glo viability at highest tested concentration (72 h), relative to DMSO and benzethonium chloride controls; higher = more inhibition
How it was run: (§1)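 After seeding 750–1000 cells per well of MPNST cell lines or primary human Schwann cells into 384-well plates preprinted with each compound at five concentrations in 10-fold steps, plates were kept 72 h at 37 °C, 5% CO2. Viability was read as CellTiter-Glo ATP luminescence relative to vehicle and positive-control wells, with duplicates averaged where present. The data were fitted with four-parameter logistic models. Drug sensitivity score and relative IC50, censored at the top concentration, derive from the fits, and percent inhibition refers to the top concentration.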

S1507-2 [2] = assay: as above
How it was run: as §1

ST8814 [3] = assay: as above
How it was run: as §1

[4] = test system: HSC2 (primary human Schwann cells); assay: as above
How it was run: as §1

S462 [5] = assay: as above
How it was run: as §1

[6] = test system: HSC1 (primary human Schwann cells); assay: as above
How it was run: as §1

STS26T [7] = assay: drug sensitivity score (DSS, CellTox-Green cytotoxicity, 72 h) (DSS (dimensionless)); higher = more cytotoxic; extreme values may be limits of the assay
How it was run: (§2)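 For 72 h at 37 °C, MPNST cell lines and primary human Schwann cells were exposed in 384-well plates to five 10-fold compound dilutions. CellTox-Green, added before seeding at a final 1:1000 dilution, gave fluorescence from DNA released by disrupted cells. Signals were scaled to vehicle and positive-control wells, cultures failing plate quality control were left out, and four-parameter logistic fits were applied. Relative IC50 and drug sensitivity score were derived from the fits, with IC50 censored at the top concentration.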

S1507-2 [8] = assay: as above
How it was run: as §2

ST8814 [9] = assay: as above
How it was run: as §2

[10] = test system: HSC2 (primary human Schwann cells); assay: as above
How it was run: as §2

[11] = test system: HSC1 (primary human Schwann cells); assay: as above
How it was run: as §2

STS26T [12] = assay: drug sensitivity score (DSS, CellTiter-Glo viability, 72 h) (DSS (dimensionless)); higher = more sensitive; extreme values may be limits of the assay
How it was run: as §1

S1507-2 [13] = assay: as above
How it was run: as §1

ST8814 [14] = assay: as above
How it was run: as §1

[15] = test system: HSC2 (primary human Schwann cells); assay: as above
How it was run: as §1

S462 [16] = assay: as above
How it was run: as §1

[17] = test system: HSC1 (primary human Schwann cells); assay: as above
How it was run: as §1

HS-Sch-2 [18] = assay: % inhibition of CellTiter-Glo viability at highest tested concentration (72 h), relative to DMSO and benzethonium chloride controls; higher = more inhibition
How it was run: as §1

HS-PSS [19] = assay: as above
How it was run: as §1

HS-PSS [20] = assay: drug sensitivity score (DSS, CellTox-Green cytotoxicity, 72 h) (DSS (dimensionless)); higher = more cytotoxic; extreme values may be limits of the assay
How it was run: as §2

HS-Sch-2 [21] = assay: drug sensitivity score (DSS, CellTiter-Glo viability, 72 h) (DSS (dimensionless)); higher = more sensitive; extreme values may be limits of the assay
How it was run: as §1

HS-PSS [22] = assay: as above
How it was run: as §1

YST-1 [23] = assay: as above
How it was run: as §1

HS-PSS [24] = assay: relative IC50 (inflection point of fitted dose-response curve, CellTox-Green cytotoxicity, 72 h; top asymptote may be below 50%); higher = less potent
How it was run: as §2

HS-Sch-2 [25] = assay: relative IC50 (inflection point of fitted dose-response curve, CellTiter-Glo viability, 72 h; top asymptote may be below 50% inhibition); higher = less potent
How it was run: as §1

HS-PSS [26] = assay: as above
How it was run: as §1

YST-1 [27] = assay: as above
How it was run: as §1

| Compound | % inhibition (STS26T [1]) | % inhibition (S1507-2 [2]) | % inhibition (ST8814 [3]) | % inhibition [4] | % inhibition (S462 [5]) | % inhibition [6] | drug sensitivity score (STS26T [7]) | drug sensitivity score (S1507-2 [8]) | drug sensitivity score (ST8814 [9]) | drug sensitivity score [10] | drug sensitivity score [11] | drug sensitivity score (STS26T [12]) | drug sensitivity score (S1507-2 [13]) | drug sensitivity score (ST8814 [14]) | drug sensitivity score [15] | drug sensitivity score (S462 [16]) | drug sensitivity score [17] | % inhibition (HS-Sch-2 [18]) | % inhibition (HS-PSS [19]) | drug sensitivity score (HS-PSS [20]) | drug sensitivity score (HS-Sch-2 [21]) | drug sensitivity score (HS-PSS [22]) | drug sensitivity score (YST-1 [23]) | relative IC50 (HS-PSS [24]) | relative IC50 (HS-Sch-2 [25]) | relative IC50 (HS-PSS [26]) | relative IC50 (YST-1 [27]) |
| --- | --- | --- | --- | --- | --- | --- | --- | --- | --- | --- | --- | --- | --- | --- | --- | --- | --- | --- | --- | --- | --- | --- | --- | --- | --- | --- | --- |
| CCN(CC)CCCC(C)Nc1c2ccc(Cl)cc2nc2ccc(OC)cc12 (configuration not stated) [Mepacrine aq] (max concentration tested 50000 nM) | 96.5% | 98.51 ± 0.17% | 96.3% | 95% | 95.06 ± 0.61% | 95.9% | 15.8 | 23.5 ± 4.6 | 14.7 | 19.6 | 20.7 | 18.9 | 19.92 ± 0.17 | 20.5 | 18 | 20.5 ± 1.6 | 18.6 |  |  |  |  |  |  |  |  |  |  |
| CCCCCCCCCCCCCCCCCCOP(=O)([O-])OC1CC[N+](C)(C)CC1 [Perifosine aq/PBS] (max concentration tested 2500 nM) | 32.7% | 1.67 ± 4.5% | 23.6% | 7.97% | 9.85 ± 1.6% | 9.06% | 0.96 | 0 | 0.404 | 0 | 0 | 1.96 | 0 | 1.66 | 0 | 0.0036 ± 0.0051 | 0 |  |  |  |  |  |  |  |  |  |  |
| COC1=C2C[C@@H](C)C[C@H](OC)[C@H](O)[C@@H](C)/C=C(\C)[C@H](OC(N)=O)[C@@H](OC)/C=C\C=C(/C)C(=O)NC(=CC1=O)C2=O [Geldanamycin] (max concentration tested 10000 nM) | 94.2% | 97.21 ± 0.53% | 90.6% | 94.7% | 98.4 ± 1.8% | 96.7% | 8.09 | 5.24 ± 1.8 | 2.65 | 20.2 | 20.4 | 12.3 | 8.65 ± 0.52 | 12 | 16.7 | 15.8 ± 0.19 | 16.7 |  |  |  |  |  |  |  |  |  |  |
| CCCCC/C=C/C=C1/C(=O)C=C[C@@H]1C/C=C\CCCC(=O)O [15D-PGJ2] (max concentration tested 800 nM) | -0.85% | 4.46 ± 11% | -9.15% | 0.683% | 0.683 ± 8.3% | 2.13% | 0 | 0 | 0 | 0 | 0 | 0 | 0.113 ± 0.16 | 0 | 0 | 0 | 0 |  |  |  |  |  |  |  |  |  |  |
| CS(=O)(=O)N1CCN(Cc2cc3nc(-c4cccc5[nH]ncc45)nc(N4CCOCC4)c3s2)CC1 [Pictilisib] (max concentration tested 10000 nM) |  |  |  | 83.3% | 68.53 ± 0.23% | 78.7% | 0 | 0.342 ± 0.48 | 1.86 | 0 | 0 | 13.3 | 13.4 ± 2.3 | 9.07 | 7.76 | 6.98 ± 0.18 | 7.89 | 51% | 52.1% | 0 | 4.35 | 5.78 | 14.6 |  |  |  |  |
| CC1(C)CCC(CN2CCN(c3ccc(C(=O)NS(=O)(=O)c4ccc(NCC5CCOCC5)c([N+](=O)[O-])c4)c(Oc4cnc5[nH]ccc5c4)c3)CC2)=C(c2ccc(Cl)cc2)C1 [ABT-199] (max concentration tested 10000 nM) | 3.69% | 8.98 ± 1.1% | 15.5% | 23.8% | 7.02 ± 15% | 14.4% | 0 | 0.226 ± 0.32 | 0.467 | 0 | 0 | 0 | 0 | 0.111 | 0.781 | 0.138 ± 0.2 | 0.0759 |  |  |  |  |  |  |  |  |  |  |
| CC(=O)O[C@]1(C(C)=O)CC[C@H]2[C@@H]3C=C(C)C4=CC(=O)CC[C@]4(C)[C@H]3CC[C@@]21C [Megestrol] (max concentration tested 10000 nM) | 1.5% | -2.04 ± 5.3% | 4.75% | 8.15% | 2.52 ± 6.2% | 9.41% | 0 | 0 | 0 | 0 | 0 | 0 | 0 | 0 | 0 | 0 | 0 |  |  |  |  |  |  |  |  |  |  |
| Nc1cccc2c1CN(C1CCC(=O)NC1=O)C2=O (configuration not stated) [Lenalidomide] (max concentration tested 10000 nM) | 0.527% | 10.8 ± 9.4% | 3.01% | 11% | 2.04 ± 9.8% | 9.28% | 0 | 0 | 0 | 2.65 | 0 | 0 | 1.35 ± 1.9 | 0 | 0.0019 | 0 | 0.47 |  |  |  |  |  |  |  |  |  |  |
| CC1=C2C[C@H]3[C@@H](CC=C4C[C@@H](O)CC[C@@]43C)[C@@H]2CC[C@]12O[C@@H]1C[C@H](C)CN[C@H]1[C@H]2C [Cyclopamine] (max concentration tested 10000 nM) | 4.33% | 11.5 ± 3% | -4.3% | 7.88% | -1.34 ± 2.9% | 9.19% | 0 | 0.06 ± 0.085 | 0 | 0 | 0 | 0 | 0.114 ± 0.16 | 0 | 0 | 0 | 0 |  |  |  |  |  |  |  |  |  |  |
| CCC(C)(C)C(=O)O[C@H]1C[C@@H](C)C=C2C=C[C@H](C)[C@H](CC[C@@H]3C[C@@H](O)CC(=O)O3)[C@H]21 [Simvastatin] (max concentration tested 10000 nM) |  |  |  |  |  |  |  |  |  |  |  | 0.448 | 0.00035 ± 0.00049 | 0.23 | 9.94 | 2.409 ± 0.0062 | 8.22 |  |  |  | 0 | 3.55 | 0 |  |  |  |  |
| Cc1ccc([N+](=O)[O-])cc1S(=O)(=O)N(C)/N=C/c1cnc2ccc(Br)cn12 [PIK-75] (max concentration tested 10000 nM) | 102% | 97.021 ± 0.018% | 89.1% | 95.4% | 101.9 ± 0.78% | 91.1% | 14.6 | 8.99 ± 6.5 | 5.5 | 9.74 | 7.46 | 22.3 | 17.9 ± 1.9 | 17.7 | 21.1 | 21.2 ± 0.91 | 19.7 |  |  |  |  |  |  |  |  |  |  |
| CC[C@@]1(O)C(=O)OCc2c1cc1n(c2=O)Cc2cc3ccccc3nc2-1 [Camptotechin] (max concentration tested 5000 nM) | 102% | 100 ± 0.18% | 100% | 102% | 103.58 ± 0.083% | 101% | 13.2 | 10.95 ± 0.027 | 30.9 | 17.7 | 20.8 | 22 | 19.2 ± 0.92 | 26.9 | 23.8 | 26.995 ± 0.022 | 22.7 |  |  |  |  |  |  |  |  |  |  |
| Cn1cnc2c(F)c(Nc3ccc(Br)cc3F)c(C(=O)NOCCO)cc21 [MEK-162] (max concentration tested 1000 nM) | 24.5% | 19.9 ± 8.2% | 23.8% | -2.17% | 29.8 ± 0.71% | 15.1% | 0 | 0 | 0 | 0 | 0 | 2.04 | 1.31 ± 1.3 | 1.66 | 0 | 2.73 ± 0.038 | 0.0621 |  |  |  |  |  |  |  |  |  |  |
| Cc1cc(C)c(CNC(=O)c2cc(-c3ccc(CN4CCOCC4)cc3)cc3c2cnn3C2CCCC2)c(=O)[nH]1 [EPZ-5687] |  |  |  |  |  |  |  |  |  |  |  |  |  |  |  |  |  |  |  |  |  |  |  | > 10000 nM | > 10000 nM | > 10000 nM | > 10000 nM |
| Cc1ccc(C(=O)Nc2ccc(CN3CCN(C)CC3)c(C(F)(F)F)c2)cc1C#Cc1cnc2cccnn12 [Ponatinib] (max concentration tested 1000 nM) |  |  |  |  |  |  |  |  |  |  |  | 3.91 | 6.1 ± 0.6 | 8.31 | 6.49 | 5.51 ± 0.34 | 6.62 |  |  |  | 5.57 | 2.2 | 4.76 |  |  |  |  |
| NC[C@@](O)(c1ccc(Cl)cc1)c1ccc(-c2cn[nH]c2)cc1 |  |  |  |  |  |  |  |  |  |  |  |  |  |  |  |  |  |  |  |  |  |  |  | 2780 nM | 1510 nM | 2030 nM | 2970 nM |
| CN1CCC(CNc2ccc3ncc(-c4cccc(OC(F)(F)F)c4)n3n2)CC1 [SGI-1776] |  |  |  |  |  |  |  |  |  |  |  |  |  |  |  |  |  |  |  |  |  |  |  | 2510 nM | 2370 nM | 2470 nM | 1660 nM |
